Measured values taken from patent US20120053112A1, “METHODS AND COMPOSITIONS RELATED TO THE REGULATION OF GOBLET CELL DIFFERENTIATION, MUCUS PRODUCTION AND MUCUS SECRETION” (CHILDREN'S HOSPITAL MEDICAL CENTER, priority 2009, published 2012).
Values joined by “and” are separate entries in the source; they are usually repeats but may differ in a detail not shown here. Equal entries are not always repeated. “Also recorded” adds a separate entry of the source.

B1: IL-13: mouse IL-13 cytokine purchased from R&D System, used for in vitro culture (protein, UniProt P20109 19-131, looked up)
Interleukin-13: APGPVPRSVSLPLTLKELIEELSNITQDQTPLCNGSMVWSVDLAAGGFCVALDSLTNISNCNAIYRTQRILHGLCNRKAPTTVSSLPDTKIEVAHFITKLLSYTKQLFRHGPF

Tests used:
[1] = test system: mouse Agr2 1.6 Kb promoter; conditions: U0126 at 20 μM and 10 μM; 36 hour transfection, aSTEpC; DMSO vehicle control
Method: Thirty-six hour transfection of adult sheep tracheal epithelial cells (aSTEpC) with Agr2-luciferase and expression vectors encoding SPDEF and Foxa3. MAPK inhibitor (U0126) was added at a concentration of 20 μM and 10 μM (DMSO as vehicle control).
Thirty-six hour transfection of adult sheep tracheal epithelial cells (aSTEpCs) with Agr2-luciferase and expression vectors encoding SPDEF and Foxa3 were performed. A MAPK inhibitor (U0126) was added at a concentration of 20 μM and 10 μM (using DMSO as a vehicle control). MAPK inhibitor (U0126) effects on the activity of the mouse Agr2 1.6 Kb promoter were analyzed.
Promoter reporter constructs were co-transfected into primary sheep tracheal epithelial cells (aSTEpC) with CMV-13-Gal plasmid (Clontech, Palo Alto, Calif.) and/or transcription factor expression plasmid using Lipofectamine 2000 (Invitrogen, Carlsbad, Calif.) as previously described^6. Growth media was changed into a differentiation media (MTEC/Nu, mouse tracheal epithelial cells culture media, 2% Nu serum)^39 after transfection. Cell lysates were collected for luciferase activity assay 24 hours after transfection. All transfection assays were performed with primary sheep adult tracheal epithelial cells at passage 3 or 4. Relative promoter activities were normalized to transfection efficiency assayed by β-galactosidase activity and shown as mean±S.D.

[2] = test system: MUC5AC mRNA in Flag-SPDEF-GFP HBEC cells; experiment: Effect of inhibitors on MUC5AC expression in SPDEF-expressing HBEC cells on air-liquid interface (real-time PCR); type: cell-based, human; conditions: for Inhibitor concentrations at which MUC5AC mRNA was not detected: SPDEF-expressing HBEC cells; for Concentration of dose curve with no detection of MUC5AC mRNA (starred): Flag-SPDEF-GFP HBEC on ALI, inhibitor added upon induction of ALI, RNA after 48 hours, TAQMAN real-time PCR, FIG. 19
Method: Inhibitors were added to media upon induction of ALI and RNA was isolated after 48 hours. (A) p38 MAPK inhibitor (SB239063) dose curve: 0.5, 1, 2.5, 5*, 10* μM. (B) PI3K inhibitor (LY294002) dose curve: 0.5, 1, 2.5, 5*, 10*, 25* μM. (C) mTor inhibitor (Rapamycin) dose curve: 1, 5, 10, 25, 50*, 100* nM. *=No detection of MUC5AC mRNA at these concentrations as determined by TAQMAN® real-time PCR (Applied Biosystems, Foster City, Calif.).
Expression levels of MUC5AC were measured in SPDEF-expressing HBEC cells treated with the p38 MAPK inhibitor SB239063. MUC5AC mRNA was quantitated by QRT-PCR. MUC5AC mRNA was not detected at inhibitor concentrations ≧5 uM.
Expression levels of MUC5AC in SPDEF-expressing HBEC cells treated with rapamycin. MUC5AC mRNA was not detected at inhibitor concentrations ≧50 nM.
Expression levels of MUC5AC in SPDEF-expressing HBEC cells treated with the PI3K inhibitor LY294002. MUC5AC mRNA was not detected at inhibitor concentrations ≧[…].
Using Agr2 as a readout of SPDEF, the effects of p38 MAPK inhibitor SB239063, PI3K inhibitor LY294002, and mTor inhibitor rapamycin in human bronchiolar epithelial cells (HBEC) were investigated. In vitro preparations were maintained at the ALI for 48 hours prior to taking Agr2 measurements.
To test for small molecule inhibitors, HBEC cells expressing lentiviral SPDEF constructs were treated with the p38 MAP kinase inhibitor, SB239063. MUC5AC mRNA was quantitated by QRT-PCR. SPDEF-dependent MUC5AC mRNA was inhibited by the p38 MAP kinase inhibitor (FIG. 22).

[3] = test system: SPDEF in primary mouse tracheal epithelial cells; experiment: IL-13 induction of SPDEF in primary mouse tracheal epithelial cells at air-liquid interface (immunohistochemistry); type: cell-based; conditions: IL-13 10 ng/ml; ALI culture, 3 and 7 days; FIG. 14
Method: Immunohistochemical staining of SPDEF in primary mouse tracheal epithelial cells cultured under an air-liquid interface (ALI) condition in the presence or absence of IL-13 (10 ng/ml). Expression of SPDEF was detected after 3 days (upper panel) and 7 days (lower panel) after ALI culture. Scale bar: 50 μm.
The air-liquid interface culture of mouse tracheal epithelial cells was performed as previously described^39. The mouse IL-13 used for in vitro culture was purchased from R&D System (Minneapolis, Minn.). The air-liquid interface culture of the HEBCs was similar to procedures previously described^40.

| Molecule | Inhibitor concentrations at which MUC5AC mRNA was not detected ([2]; QRT-PCR, FIGS. 22, 25) [µM] | Concentration of dose curve with no detection of MUC5AC mRNA (starred) [2] | other results |
| --- | --- | --- | --- |
| N#CC(=C(/N)Sc1ccccc1N)/C(C#N)=C(\N)Sc1ccccc1N [U0126] |  |  | Effect on activation of SPDEF or Agr2 (Agr2 promoter luciferase activity) [1]: inhibited |
| O=c1cc(N2CCOCC2)oc2c(-c3ccccc3)cccc12 [LY294002] | ≥ 10 |  |  |
| CO[C@H]1C[C@@H]2CC[C@@H](C)[C@@](O)(O2)C(=O)C(=O)N2CCCC[C@H]2C(=O)O[C@H]([C@H](C)C[C@@H]2CC[C@@H](O)[C@H](OC)C2)CC(=O)[C@H](C)/C=C(\C)[C@@H](O)[C@@H](OC)C(=O)[C@H](C)C[C@H](C)/C=C/C=C/C=C/1C [Rapamycin] |  | 50 nM and 100 nM | Inhibitor concentrations at which MUC5AC mRNA was not detected ([2]; FIG. 24): ≥ 0.05 µM |
| COc1nccc(-c2c(-c3ccc(F)cc3)ncn2C2CCC(O)CC2)n1 (centres unmarked) [SB239063] | ≥ 5 | 5000 nM and 10000 nM | Effect on SPDEF-mediated MUC5AC (Muc5A/C) activation / mRNA ([2]; HBEC in vitro, result in words): highly active; also recorded: inhibited |
| B1 |  |  | SPDEF expression [3]: dramatically induced |
